Data: patent US20230148152A1, “METHOD OF SYNTHESIZING SINGLE-STRANDED NUCLEOTIDE SEQUENCE, BLOCKED NUCLEOSIDE TRIPHOSPHATES AND RELATED METHODS” (Agency for Science, Technology and Research, priority 2019, published 2023)

Experiments:
Format in all cases: biochemical
[1] = test system: template-independent terminal deoxynucleotidyl transferase (TdT) enzyme; experiment: Single base addition to single-stranded nucleotide sequence catalysed by TdT (overall conclusion); details: for termination of further base incorporation: summary of tailing experiments; for incorporation in single stranded oligonucleotide via the catalysis of TdT: summary, recombinant or engineered TdT
From the text: A series of screening experiments were designed and conducted to test the recognition of the reversible terminators nucleoside triphosphate reversible terminators designed in accordance with various embodiments disclosed herein by template-independent polymerase and the efficiency of the incorporation of such reversible terminators into the nucleic acid chain. In these experiments, the template-independent polymerase used is recombinant or engineered template-independent terminal deoxynucleotidyl transferase (TdT) enzyme and the initiator used is a single-stranded oligonucleotide sequence.

[2] = test system: engineered terminal deoxynucleotidyl transferase (TdT); experiment: Tailing experiment design, screening of RT-dTTPs with eTdT as enzyme; details: for incorporation into the original FAM-20-mer (21-mer product): eTdT as enzyme, PAGE, FIG. 8A and FIG. 8B; for incorporation yield, eTdT compared with rTdT: catalytic activity of rTdT compared with eTdT, FIG. 10
From the text: (§1) In this experimental design (FIG. 5), single-stranded deoxyoligonucleotides (20 nt) 102 with FAM tagged on 5′ end reacts with RT-dNTP 104 using TdT as the catalyst, and produce 21-mer (102a and 102b).
(§2) As the incorporation is not 100%, the unreacted FAM tagged oligo will further react with natural deoxynucleotidyl triphosphates (dATP) 106, and produces tailing products 102c. The 21-mer (102a and 102b) and tailing products (102c) can be separated by polyacrylamide gel electrophoresis.
(§3) 1. Set up the following reactions
(§4) 2. Incubate the solution at 37° C. for 60 min
(§5) 3. Purification • Desalt with Zymo column Oligo Clean & Concentrator D4061 (following manufacturer's protocol) to obtain 15 μL aqueous solution and concentrate on speedvac to dry
(§6) 4. Set up the following reactions
(§7) 5. Incubate at 37° C. for 60 min
(§8) 6. Stop the reaction by heating at 70° C. for 10 min
(§9) 7. Purification • Desalt with Zymo column Oligo Clean & Concentrator D4061 (following manufacturer's protocol) to obtain 15 μL aqueous solution and concentrate on speedvac to dry
(§10) 8. Denaturing PAGE (20% urea PAGE, 200V for 90 min) • Preheat 1×TBE buffer at 65° C. • Set up gel in gel tank, flush wells, pre-run 20% urea polyacrylamide gel at 200V for 30 min • Prepare loading sample (dry sample+2.5 μL 1×TBE, 0.5 μL loading buffer), preheat sample at 95° C. for 10 min • Flush each well 3 times to remove urea in wells, load sample, and run for 90 min • Image under UV light without post staining. If post staining is needed, SYBR Gold is used.
(§11) In evaluating the RT-dTTP(s)'s incorporation and termination activities using tailing experiment design, two types of TdTs are used for the evaluation studies: recombinant TdT (rTdT) purchased from Promega and engineered TdT (eTdT).

[3] = test system: terminal deoxynucleotidyl transferase (TdT); experiment: Evaluation of reversibility of reversible terminators (incorporation, capping, deprotection, elongation); details: elongation by TdT after deprotection of CE or DT
From the text: Once RT-dTTP is incorporated to the single-stranded oligonucleotide, the reversible terminator needs to be removed to enable the next base incorporation. […] The reaction will produce a mixture of products which includes the reversibly terminated 21-mer (202a and 202b) and unreacted original 20-mer 202. Then azido-ddGTP 206 will be added to 3′-termini of the unreacted 20-mer 202. As 3′ termini become a dideoxynucleotide 202c, the azido oligonucleotide will not be able to further react with any dTTP via TdT. Then reversibly terminator will be removed in certain conditions, and further incorporated with natural dTTP 208 via TdT.
1. Set Up the Following Reactions
as §4
3. Purification • Desalt with Zymo column Oligo Clean & Concentrator D4061 (following protocol) to obtain 15 μL aqueous solution and concentrate on speedvac to dry
4. Add 85 μL of 30% NH4OH and heat at 80° C. for 1 h
5. Purification • Desalt with Zymo column Oligo Clean & Concentrator D4061 (following protocol) to obtain 15 μL aqueous solution and concentrate on speedvac to dry Elongation of Nucleotide with Natural dATP:
6. Set up the following reactions
7. Incubate at 37° C. for 60 min
8. Stop the reaction by heating at 70° C. for 10 min
9. Purification • Desalt with Zymo column Oligo Clean & Concentrator D4061 (following protocol) to obtain 15 μL aqueous solution and concentrate on speedvac to dry […]

rTdT = molecular target: T1, rTdT (Bos taurus, UniProt P06526); experiment: Laddering experiment design (dATP / RT-dTTP ratios); details: laddering experiments, FIG. 11; compared with Az-dTTP
T1 construct: purchased Promega
T1 sequence (P06526 whole entry): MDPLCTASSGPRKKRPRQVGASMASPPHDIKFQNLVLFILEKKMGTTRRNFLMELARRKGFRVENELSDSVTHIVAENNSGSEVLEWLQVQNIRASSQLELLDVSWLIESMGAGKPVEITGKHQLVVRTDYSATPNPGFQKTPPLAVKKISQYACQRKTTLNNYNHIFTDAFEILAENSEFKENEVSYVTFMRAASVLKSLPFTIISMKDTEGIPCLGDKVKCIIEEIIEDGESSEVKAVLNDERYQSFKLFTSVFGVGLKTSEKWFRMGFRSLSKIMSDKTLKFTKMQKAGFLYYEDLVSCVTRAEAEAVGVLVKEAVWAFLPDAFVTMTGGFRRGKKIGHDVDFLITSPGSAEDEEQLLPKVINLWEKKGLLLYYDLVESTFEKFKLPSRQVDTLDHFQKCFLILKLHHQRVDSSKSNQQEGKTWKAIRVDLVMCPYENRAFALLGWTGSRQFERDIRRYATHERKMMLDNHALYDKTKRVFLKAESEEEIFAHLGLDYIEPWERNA
Experimental: The laddering experiment design is to differentiate the ratio between natural dNTP and RT-dNTP.
as §3
2. Incubate at 37° C. for 60 min
3. Stop the reaction by heating at 70° C. for 10 min
4. Purification • Desalt with Zymo column Oligo Clean & Concentrator D4061 (following manufacturer's protocol) to obtain 15 μL aqueous solution and concentrate on speedvac to dry
as §10, with “5.” for “8.”

[4] = molecular target: T2, recombinant terminal deoxynucleotidyl transferase (TdT) (Bos taurus, UniProt P06526); experiment: Tailing experiment design, screening of RT-dTTPs with rTdT as enzyme; details: 37° C. for 60 min, PAGE, FIG. 6A, FIG. 7
T2 construct: purchased Promega
T2 sequence (P06526 whole entry): as above
From the text: as §1, §2, §3, §4, §5, §6, §7, §8, §9, §10, §11

| Compound | termination of further base incorporation [1] | incorporation in single stranded oligonucleotide via the catalysis of TdT [1] | incorporation into the original FAM-20-mer (21-mer product) [2] | incorporation yield, eTdT compared with rTdT [2] | further incorporation of natural nucleotide after deprotection [3] | termination of the reaction (rTdT) | incorporation into the original FAM-20-mer (21-mer product) [4] |
| --- | --- | --- | --- | --- | --- | --- | --- |
| C=CCOCO[C@H]1C[C@H](n2cc(C)c(=O)[nH]c2=O)O[C@@H]1COP(=O)(O)OP(=O)(O)OP(=O)(O)O [AL-dTTP, (allyloxy)methyl (ALM)-dTTP] | terminate further base incorporation | successfully incorporated | gave 21-mer products |  |  |  |  |
| Cc1cn(C2CC(OCN=[N+]=[N-])C(COP(=O)(O)OP(=O)(O)OP(=O)(O)O)O2)c(=O)[nH]c1=O (stereo not shown) [Az-dTTP, reference compound] |  |  |  | much high incorporation yield than rTdT |  |  |  |
| Cc1cn([C@H]2C[C@H](OCCC#N)[C@@H](COP(=O)(O)OP(=O)(O)OP(=O)(O)O)O2)c(=O)[nH]c1=O [CE-dTTP, 2-cyanoethyl ether (CE)-dTTP] |  |  |  | much high incorporation yield than rTdT | able to incorporate with natural dTTP | can terminate the reaction as well as Az-dTTP |  |
| Cc1cn([C@H]2C[C@H](OC(=O)OCCSSC(C)(C)C)[C@@H](COP(=O)(O)OP(=O)(O)OP(=O)(O)O)O2)c(=O)[nH]c1=O [DT-dTTP, disulfide carbonate (DT)-dTTP] | terminate further base incorporation | successfully incorporated | gave 21-mer products |  | able to incorporate with natural dTTP | can terminate the reaction as well as Az-dTTP | particularly good yield of 21-mer |
| Cc1cn([C@H]2C[C@H](OCOCc3ccc([N+](=O)[O-])cc3)[C@@H](COP(=O)(O)OP(=O)(O)OP(=O)(O)O)O2)c(=O)[nH]c1=O [PNBA-dTTP, 4-nitrobenzyloxy-methyl (PNBA)-dTTP] | terminate further base incorporation | successfully incorporated | gave 21-mer products |  |  |  | gave 21-mer products |
| Cc1cn([C@H]2C[C@H](OCOCC[Si](C)(C)C)[C@@H](COP(=O)(O)OP(=O)(O)OP(=O)(O)O)O2)c(=O)[nH]c1=O [SEM-dTTP, 2-(trimethylsilyl)ethoxymethyl (SEM)-dTTP] | terminate further base incorporation | successfully incorporated | gave 21-mer products |  |  |  | gave 21-mer products |
| dithianemethyl acetal (DMA)-dTTP [DMA-dTTP] | terminate further base incorporation | successfully incorporated | gave 21-mer products |  |  |  | gave 21-mer products |
